What was measured:
Human gammaherpesvirus 4 [1] = assay: Inhibition of TPA-induced Epstein-Barr virus early antigen activation in Raji cells after 48 hrs; assay type: functional, organism-based; details: human gammaherpesvirus 4, Raji
Raji = assay: Cell viability of Raji cells at 320 nM; assay type: functional, Homo sapiens
[2] = Scavenging activity against NO generation in human Chang liver cells assessed as inhibition of NOR1-activation at 350 nM relative to NOR1; assay type: functional
Human gammaherpesvirus 4 [3] = assay: Inhibition of TPA-induced Epstein-Barr virus early antigen activation assessed as EBV-EA induction in Raji cells at 32 nM after 48 hrs relative to TPA; values are per cent of control; details: human gammaherpesvirus 4, Raji
Human gammaherpesvirus 4 [4] = assay: Inhibition of TPA-induced Epstein-Barr virus early antigen activation assessed as EBV-EA induction in Raji cells at 320 nM after 48 hrs relative to TPA; values are per cent of control; details: human gammaherpesvirus 4, Raji
Human gammaherpesvirus 4 [5] = assay: Inhibition of TPA-induced Epstein-Barr virus early antigen activation assessed as EBV-EA induction in Raji cells at 3.2 nM after 48 hrs relative to TPA; values are per cent of control; details: human gammaherpesvirus 4, Raji
Human gammaherpesvirus 4 [6] = assay: Inhibition of TPA-induced Epstein-Barr virus early antigen activation assessed as EBV-EA induction in Raji cells at 0.32 nM after 48 hrs relative to TPA; values are per cent of control; details: human gammaherpesvirus 4, Raji

Structure (SMILES) | IC50 (Human gammaherpesvirus 4 [1]) | Activity (Raji) | Activity [2] | level, % of control at 0.032 µM (Human gammaherpesvirus 4 [3]) | level, % of control at 0.32 µM (Human gammaherpesvirus 4 [4]) | level, % of control at 0.0032 µM (Human gammaherpesvirus 4 [5]) | level, % of control at 0.00032 µM (Human gammaherpesvirus 4 [6])
C=C(C)[C@@H](C)CC[C@@H](C)[C@H]1CC[C@@]2(C)[C@@H]3CC[C@H]4C(C)(C)[C@@H](O)CC[C@@]45C[C@@]35CC[C@]12C [CYCLOLAUDENOL (24S)] | 8.9 nM | 70% | 1.8 | 30.6% | 0% | 70% | 93.6%
CC(C)C(C)CC[C@@H](C)[C@H]1CC[C@@]2(C)[C@@H]3CC[C@H]4[C@H](C)[C@@H](O)CC[C@@]45C[C@@]35CC[C@]12C (some centres not stated) | 10 nM | 70% | 1.6 | 31.8% | 0% | 73.4% | 96.8%
COC(C)(C)[C@@H](O)CC[C@@H](C)[C@H]1CC[C@@]2(C)[C@@H]3CC[C@H]4C(C)(C)[C@@H](O)CC[C@@]45C[C@@]35CC[C@]12C | 9.5 nM | 70% | 1.8 | 30.7% | 0% | 74.5% | 95.9%
CC(C)CCC[C@@H](C)[C@H]1CC[C@@]2(C)[C@@H]3CC[C@H]4[C@H](C)[C@@H](O)CC[C@@]45C[C@@]35CC[C@]12C | 9.9 nM | 70% | 1.5 | 31.5% | 0% | 72.6% | 95.6%
COC(CC[C@@H](C)[C@H]1CC[C@@]2(C)[C@@H]3CC[C@H]4C(C)(C)C(=O)CC[C@@]45C[C@@]35CC[C@]12C)C(C)(C)O (some centres not stated) | 8.8 nM | 70% | 1.9 | 21% | 0% | 67.1% | 94.6%
CC(=O)O[C@@H]1CC[C@]23C[C@]24CC[C@]2(C)[C@@H]([C@H](C)CCC=C(C)C)CC[C@@]2(C)[C@@H]4CC[C@H]3C1(C)C | 10.2 nM | 70% | 1.6 | 33.2% | 0% | 73.1% | 96%
C=C(C)C(O)CC[C@@H](C)[C@H]1CC[C@@]2(C)[C@@H]3CC[C@H]4C(C)(C)C(=O)CC[C@@]45C[C@@]35CC[C@]12C (some centres not stated) | 8.6 nM | 70% | 2 | 21.1% | 0% | 69.7% | 91.2%
CC(=O)[C@H]1CC[C@@]2(C)[C@@H]3CC[C@H]4C(C)(C)C(=O)CC[C@@]45C[C@@]35CC[C@]12C | 8.9 nM | 70% | 1.5 | 22.1% | 0% | 70.3% | 94.6%
C=C(C)C(=O)CC[C@@H](C)[C@H]1CC[C@@]2(C)[C@@H]3CC[C@H]4C(C)(C)[C@@H](O)CC[C@@]45C[C@@]35CC[C@]12C | 9.3 nM | 70% | 1.4 | 25.4% | 1.5% | 73.1% | 97.8%
C/C(=C\C[C@@H](C)[C@H]1CC[C@@]2(C)[C@@H]3CC[C@H]4C(C)(C)[C@@H](O)CC[C@@]45C[C@@]35CC[C@]12C)C(C)C [(23E)-CYCLOSADOL] | 9.9 nM | 70% | 2 | 31.4% | 0% | 72.8% | 95.2%
CC(C)=C(C)CC[C@@H](C)[C@H]1CC[C@@]2(C)[C@@H]3CC[C@H]4C(C)(C)[C@@H](O)CC[C@@]45C[C@@]35CC[C@]12C [CYCLOBRANOL] | 9.4 nM | 70% | 1.9 | 30.5% | 0% | 71.3% | 94.5%
CC(C)CCC[C@@H](C)[C@H]1CC[C@@]2(C)[C@@H]3CC[C@H]4C(C)(C)[C@@H](O)CC[C@@]45C[C@@]35CC[C@]12C [CYCLOARTANOL] | 9.4 nM | 70% | 1.8 | 30.2% | 0% | 70.2% | 95%
CC(C)C(=O)CC[C@@H](C)[C@H]1CC[C@@]2(C)[C@@H]3CC[C@H]4C(C)(C)C(=O)CC[C@@]45C[C@@]35CC[C@]12C | 9 nM | 70% | 1.9 | 24% | 0% | 72.1% | 96.3%
COc1cc(/C=C/C(=O)CC(=O)/C=C/c2ccc(O)c(OC)c2)ccc1O [CURCUMIN] | 10.2 nM | 60% | – | 22.8% | 0% | 81.7% | 100%
CC1=C(/C=C/C(C)=C/C=C/C(C)=C/C(=O)O)C(C)(C)CCC1 [TRETINOIN] | 15.4 nM | 60% | – | 49.3% | 21.6% | 76.3% | 100%
C=C(C)[C@@H](C)CC[C@@H](C)[C@H]1CC[C@@]2(C)[C@@H]3CC[C@H]4[C@@H](C)C(=O)CC[C@@]45C[C@@]35CC[C@]12C | 9.9 nM | 70% | 1.8 | 32.4% | 0% | 72.7% | 94.6%
CC(C)=CCC[C@@H](C)[C@H]1CC[C@@]2(C)[C@@H]3CC[C@H]4[C@H](C)[C@@H](O)CC[C@@]45C[C@@]35CC[C@]12C | 9.5 nM | 70% | 1.8 | 30.2% | 0% | 71.4% | 94.6%
C=C(CC[C@@H](C)[C@H]1CC[C@@]2(C)[C@@H]3CC[C@H]4CC(=O)CC[C@@]45C[C@@]35CC[C@]12C)C(C)C | 10.2 nM | 70% | 1.5 | 33.2% | 0% | 73.8% | 95.6%
CC1(C)N([O])C(c2ccc(C(=O)O)cc2)=[N+]([O-])C1(C)C | – | – | 8 | – | – | – | –
CC1(C)[C@@H](O[C@H]2O[C@H](C(=O)O)[C@@H](O)[C@H](O)[C@H]2O[C@@H]2O[C@H](C(=O)O)[C@@H](O)[C@H](O)[C@H]2O)CC[C@]2(C)[C@H]3C(=O)C=C4[C@@H]5C[C@@](C)(C(=O)O)CC[C@]5(C)CC[C@@]4(C)[C@]3(C)CC[C@@H]12 [GLYCYRRHIZIN] | – | – | 2.2 | – | – | – | –
CC1=C(/C=C/C(C)=C/C=C/C(C)=C/C=C/C=C(C)/C=C/C=C(C)/C=C/C2=C(C)CCCC2(C)C)C(C)(C)CCC1 [BETA CAROTENE] | 12.7 nM | 70% | – | 34.2% | 8.6% | 82.1% | 100%
